Assay results as given in ChEMBL document CHEMBL1138300, “Tris-azaaromatic quaternary ammonium salts: Novel templates as antagonists at nicotinic receptors mediating nicotine-evoked dopamine release” (Bioorg Med Chem Lett, 2007).

What was measured:
[1] = target: Neuronal acetylcholine receptor; alpha4/beta2 (Rattus norvegicus) (UniProt P09483+P12390); assay: Displacement of [3H]NIC from alpha-4-beta-2 nAChR in rat brain membrane at 100 uM; assay type: cell membranes
[2] = Antagonist activity at nAChR in rat striatal slices assessed as inhibition of nicotine-evoked [3H]dopamine release at 100 uM; assay type: functional; conditions: for inhibition at 100 µM: Rattus norvegicus
[3] = target: Neuronal acetylcholine receptor subunit alpha-7 (Rattus norvegicus) (UniProt Q05941); assay: Displacement of [3H]MLA from alpha-7 nAChR in rat brain membrane at 100 uM; assay type: cell membranes
Neuronal acetylcholine receptor subunit alpha-7 (Rattus norvegicus), sequence (Q05941 whole entry): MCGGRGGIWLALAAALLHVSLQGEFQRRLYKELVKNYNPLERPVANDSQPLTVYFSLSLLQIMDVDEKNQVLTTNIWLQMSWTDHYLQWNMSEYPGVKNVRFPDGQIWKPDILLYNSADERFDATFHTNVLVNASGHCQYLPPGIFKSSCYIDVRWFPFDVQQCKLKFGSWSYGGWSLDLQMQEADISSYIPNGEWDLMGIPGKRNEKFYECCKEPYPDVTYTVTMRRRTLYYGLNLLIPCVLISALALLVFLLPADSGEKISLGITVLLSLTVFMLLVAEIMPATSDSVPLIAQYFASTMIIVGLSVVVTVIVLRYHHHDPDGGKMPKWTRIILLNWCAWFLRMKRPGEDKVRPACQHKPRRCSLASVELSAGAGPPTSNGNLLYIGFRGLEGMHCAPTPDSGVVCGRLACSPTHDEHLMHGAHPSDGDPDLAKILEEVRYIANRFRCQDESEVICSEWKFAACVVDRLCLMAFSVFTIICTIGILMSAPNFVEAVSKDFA

[4] = Antagonist activity at nAChR in rat striatal slices assessed as inhibition of nicotine-evoked [3H]dopamine release; assay type: functional

Row | Structure (SMILES) | inhibition [1] [%] | inhibition at 100 µM [2] [%] | inhibition [3] [%] | IC50 [4] [nM] | Imax [2] [%]
1 | Cc1cc[n+](CCCC#Cc2cc(C#CCCC[n+]3ccc(C)cc3)cc(C#CCCC[n+]3ccc(C)cc3)c2)cc1 | 21 | 32 | 0 | – | –
2 | c1ccc2c(c1)ccc[n+]2CCCCCc1cc(CCCCC[n+]2cccc3ccccc32)cc(CCCCC[n+]2cccc3ccccc32)c1 | 5.7 | 8 | 6.8 | – | –
3 | Cc1cccc[n+]1CCCCCc1cc(CCCCC[n+]2ccccc2C)cc(CCCCC[n+]2ccccc2C)c1 | 8.6 | 27 | 0 | – | –
4 | CCCCc1ccc[n+](CCCCCc2cc(CCCCC[n+]3cccc(CCCC)c3)cc(CCCCC[n+]3cccc(CCCC)c3)c2)c1 | 6.2 | 68 | 4.4 | – | –
5 | c1ccc2c[n+](CCCCCc3cc(CCCCC[n+]4ccc5ccccc5c4)cc(CCCCC[n+]4ccc5ccccc5c4)c3)ccc2c1 | 8.4 | 28 | 2.5 | – | –
6 | c1ccc(-c2ccc[n+](CCCCCc3cc(CCCCC[n+]4cccc(-c5ccccc5)c4)cc(CCCCC[n+]4cccc(-c5ccccc5)c4)c3)c2)cc1 | 14 | 6 | 19 | – | –
7 | Cc1cc[n+](CCCCCc2cc(CCCCC[n+]3ccc(C)cc3)cc(CCCCC[n+]3ccc(C)cc3)c2)cc1 | 6 | 37 | 0 | – | –
8 | Cc1cc[n+](CCCC#Cc2cc(C#CCCC[n+]3ccc(C)c(C)c3)cc(C#CCCC[n+]3ccc(C)c(C)c3)c2)cc1C | 4 | 18 | 1.8 | – | –
9 | Cc1cc(C)c[n+](CCCC#Cc2cc(C#CCCC[n+]3cc(C)cc(C)c3)cc(C#CCCC[n+]3cc(C)cc(C)c3)c2)c1 | 8.9 | 27 | 0 | – | –
10 | Cc1ccc[n+](CCCCCc2cc(CCCCC[n+]3cccc(C)c3)cc(CCCCC[n+]3cccc(C)c3)c2)c1.[Br-].[Br-].[Br-] | 14 | 58 | 1.2 | 2 | 50
11 | C(#Cc1cc(C#CCCC[n+]2cccc3ccccc32)cc(C#CCCC[n+]2cccc3ccccc32)c1)CCC[n+]1cccc2ccccc21 | 7 | 29 | 21 | – | –
12 | Cc1cc[n+](CCCCCc2cc(CCCCC[n+]3ccc(C)c(C)c3)cc(CCCCC[n+]3ccc(C)c(C)c3)c2)cc1C | 9.3 | 50 | 0.2 | – | –
13 | CCCCCCCCCCCC[n+]1cccc(C)c1.[I-] | – | – | – | 30 | 62
14 | Cc1ccc[n+](CCCC#Cc2cc(C#CCCC[n+]3cccc(C)c3)cc(C#CCCC[n+]3cccc(C)c3)c2)c1.[Br-].[Br-].[Br-] | 10 | 40 | 0 | 0.2 | 67
15 | Cc1ccc[n+](CCCCCCCCCCCC[n+]2cccc(C)c2)c1.[Br-].[Br-] | – | – | – | 2 | 68
16 | CCCCc1ccc[n+](CCCC#Cc2cc(C#CCCC[n+]3cccc(CCCC)c3)cc(C#CCCC[n+]3cccc(CCCC)c3)c2)c1 | 6.8 | 28 | 30 | – | –
17 | Cc1cc(C)c[n+](CCCCCc2cc(CCCCC[n+]3cc(C)cc(C)c3)cc(CCCCC[n+]3cc(C)cc(C)c3)c2)c1 | 11 | 39 | 6.5 | – | –
18 | CN1CCC[C@H]1c1ccc[n+](CCCC#Cc2cc(C#CCCC[n+]3cccc([C@@H]4CCCN4C)c3)cc(C#CCCC[n+]3cccc([C@@H]4CCCN4C)c3)c2)c1.[Br-].[Br-].[Br-] | 44 | 59 | 4.2 | – | 50
19 | C(#Cc1cc(C#CCCC[n+]2ccc3ccccc3c2)cc(C#CCCC[n+]2ccc3ccccc3c2)c1)CCC[n+]1ccc2ccccc2c1 | 9.2 | 44 | 4.5 | – | –
20 | C(#Cc1cc(C#CCCC[n+]2cccc(-c3ccccc3)c2)cc(C#CCCC[n+]2cccc(-c3ccccc3)c2)c1)CCC[n+]1cccc(-c2ccccc2)c1 | 15 | 29 | 39 | – | –
21 | Cc1cccc[n+]1CCCC#Cc1cc(C#CCCC[n+]2ccccc2C)cc(C#CCCC[n+]2ccccc2C)c1.[Br-].[Br-].[Br-] | 4.5 | 51 | 0 | 4 | 50
22 | CN1CCC[C@H]1c1ccc[n+](CCCCCc2cc(CCCCC[n+]3cccc([C@@H]4CCCN4C)c3)cc(CCCCC[n+]3cccc([C@@H]4CCCN4C)c3)c2)c1 | 81 | 26 | 7.9 | – | –
